Test results published in ChEMBL document CHEMBL1201862, “PubChem BioAssay data set” (2004).
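Cultured in 96-well plates, cells were exposed to test compound for 48 hours across five concentrations. GI50 is the concentration that inhibits growth by half.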 Active and inactive are the calls of the source. Rule as the data show it: active = GI50 up to about 1.1 µM and inactive = higher.

How the values were obtained:
Experiment in all cases: NCI-60 cell line screen, 48 h
786-0 = tested on: 786-0
CAKI-1 = tested on: CAKI-1
DU-145 = tested on: DU-145
EKVX = tested on: EKVX
HOP-62 = tested on: HOP-62
HOP-92 = tested on: HOP-92
LOX IMVI = tested on: LOX IMVI
MCF7 = tested on: MCF7
MOLT-4 = tested on: MOLT-4
Malme-3M = tested on: Malme-3M
NCI-H23 = tested on: NCI-H23
NCI-H522 = tested on: NCI-H522
OVCAR-3 = tested on: OVCAR-3
OVCAR-5 = tested on: OVCAR-5
PC-3 = tested on: PC-3
SK-MEL-28 = tested on: SK-MEL-28
SNB-19 = tested on: SNB-19
T47D = tested on: T47D
U-251 = tested on: U-251
UO-31 = tested on: UO-31

Row | SMILES | GI50 (786-0) | GI50 (CAKI-1) | GI50 (DU-145) | GI50 (EKVX) | GI50 (HOP-62) | GI50 (HOP-92) | GI50 (LOX IMVI) | GI50 (MCF7) | GI50 (MOLT-4) | GI50 (Malme-3M) | GI50 (NCI-H23) | GI50 (NCI-H522) | GI50 (OVCAR-3) | GI50 (OVCAR-5) | GI50 (PC-3) | GI50 (SK-MEL-28) | GI50 (SNB-19) | GI50 (T47D) | GI50 (U-251) | GI50 (UO-31)
1 | Cc1ccc(/C(Cl)=C/C=C(C#N)C#N)cc1 | 1.88 µM (inactive) | 3.64 µM (inactive) | 11.3 µM (inactive) | 10.1 µM (inactive) | 1.98 µM (inactive) | 3.26 µM (inactive) | 1.17 µM (inactive) | 30.4 µM (inactive) | 0.65 µM (active) | 3.85 µM (inactive) | 1.76 µM (inactive) | 1.98 µM (inactive) | 1.93 µM (inactive) | 2.6 µM (inactive) | 4.01 µM (inactive) | 2.14 µM (inactive) | 7.62 µM (inactive) | 4.23 µM (inactive) | 4.18 µM (inactive) | 4.58 µM (inactive)
2 | N=c1nc2n(cc1F)[C@@H]1O[C@H](CO)[C@@H](O)[C@@H]1O2 | 4.46 µM (inactive) | 3.45 µM (inactive) | 0.971 µM (active) | > 100 µM (inactive) | 2.36 µM (inactive) | 11.3 µM (inactive) | 1.06 µM (active) | 1.14 µM (inactive) | 0.0336 µM (active) | 9.42 µM (inactive) | 2.29 µM (inactive) | 4.18 µM (inactive) | 9.1 µM (inactive) | > 100 µM (inactive) | > 100 µM (inactive) | > 63.7 µM (inactive) | > 92.9 µM (inactive) | 18.4 µM (inactive) | 24.8 µM (inactive) | 24.6 µM (inactive)
3 | COC(=O)c1ccc(NCc2cc(O)ccc2O)cc1O | 8.07 µM (inactive) | 6.78 µM (inactive) | 12.3 µM (inactive) | 13.5 µM (inactive) | 10.9 µM (inactive) | 11.2 µM (inactive) | 13 µM (inactive) | 6.67 µM (inactive) | 2.09 µM (inactive) | 16.4 µM (inactive) | 9.46 µM (inactive) | 0.405 µM (active) | 3.6 µM (inactive) | 16.7 µM (inactive) | 4.89 µM (inactive) | 16.4 µM (inactive) | 13.2 µM (inactive) | 3.4 µM (inactive) | 11.9 µM (inactive) | 1.82 µM (inactive)
4 | COC(=O)/C=C/c1ccc2c(c1)CCC2 | 39.4 µM (inactive) | 17.4 µM (inactive) | 43.3 µM (inactive) | 82.6 µM (inactive) | > 100 µM (inactive) | 5.28 µM (inactive) | > 100 µM (inactive) | 52.5 µM (inactive) | 41.9 µM (inactive) | 66.5 µM (inactive) | 37.2 µM (inactive) | 22.1 µM (inactive) | 17.7 µM (inactive) | > 100 µM (inactive) | 30.4 µM (inactive) | > 100 µM (inactive) | 48.5 µM (inactive) | 11.3 µM (inactive) | 9.79 µM (inactive) | 45 µM (inactive)
5 | Cc1occc(=O)c1O [MALTOL] | > 100 µM (inactive) | > 100 µM (inactive) | > 100 µM (inactive) | > 100 µM (inactive) | > 100 µM (inactive) | > 100 µM (inactive) | > 100 µM (inactive) | > 100 µM (inactive) | > 100 µM (inactive) | > 100 µM (inactive) | > 100 µM (inactive) | > 100 µM (inactive) | > 100 µM (inactive) | > 100 µM (inactive) | > 100 µM (inactive) | > 100 µM (inactive) | > 100 µM (inactive) | > 100 µM (inactive) | > 100 µM (inactive) | > 100 µM (inactive)
6 | O=C(Cn1ccnc1[N+](=O)[O-])N(CCO)CCO | > 250 µM (inactive) | > 250 µM (inactive) | > 250 µM (inactive) | > 250 µM (inactive) | > 250 µM (inactive) | > 1250 µM (inactive) | > 1250 µM (inactive) | > 1250 µM (inactive) | > 250 µM (inactive) | 135 µM (inactive) | > 250 µM (inactive) | > 250 µM (inactive) | > 250 µM (inactive) | > 250 µM (inactive) | > 250 µM (inactive) | > 250 µM (inactive) | > 250 µM (inactive) | > 250 µM (inactive) | > 250 µM (inactive) | > 250 µM (inactive)
7 | Cc1ccc(C(=O)OCC(C)C)cc1/N=N/N(C)C | > 81.5 µM (inactive) | 43.8 µM (inactive) | > 100 µM (inactive) | > 100 µM (inactive) | 67.8 µM (inactive) | > 65 µM (inactive) | 31.1 µM (inactive) | 30.9 µM (inactive) | 59.7 µM (inactive) | > 100 µM (inactive) | 34.8 µM (inactive) | 35.2 µM (inactive) | 28.6 µM (inactive) | > 100 µM (inactive) | 48.4 µM (inactive) | > 71 µM (inactive) | > 76.7 µM (inactive) | 35.3 µM (inactive) | 65.6 µM (inactive) | 41.3 µM (inactive)
8 | Cc1ccc2c(C(=O)c3c(C)n(CCN4CCOCC4)c4ccccc34)cccc2c1 | 13.8 µM (inactive) | 25.1 µM (inactive) | 27.5 µM (inactive) | 20.5 µM (inactive) | 27.3 µM (inactive) | 19.1 µM (inactive) | 12.9 µM (inactive) | 3.53 µM (inactive) | 3.88 µM (inactive) | 5.98 µM (inactive) | 14.8 µM (inactive) | 10.6 µM (inactive) | 3.54 µM (inactive) | 23.2 µM (inactive) | 11.9 µM (inactive) | 1.36 µM (inactive) | 33.9 µM (inactive) | 17.2 µM (inactive) | 12.9 µM (inactive) | 23.2 µM (inactive)
9 | CN(C)c1ccc(C(c2ccc(Cl)cc2)c2ccc(N(C)C)cc2)cc1 | > 100 µM (inactive) | > 100 µM (inactive) | > 100 µM (inactive) | 62.5 µM (inactive) | > 100 µM (inactive) | > 100 µM (inactive) | > 100 µM (inactive) | 49.1 µM (inactive) | > 100 µM (inactive) | 30.1 µM (inactive) | > 100 µM (inactive) | 28.5 µM (inactive) | > 100 µM (inactive) | > 100 µM (inactive) | > 100 µM (inactive) | > 100 µM (inactive) | > 100 µM (inactive) | 64.7 µM (inactive) | > 100 µM (inactive) | > 100 µM (inactive)
10 | COC(=O)/C=C\C(C#N)(C#N)/N=C/c1ccc(Br)s1 | 5.42 µM (inactive) | 2.45 µM (inactive) | 10.7 µM (inactive) | 12.2 µM (inactive) | 17.6 µM (inactive) | 1.93 µM (inactive) | 2.16 µM (inactive) | 2.47 µM (inactive) | 2.07 µM (inactive) | 1.77 µM (inactive) | 9.2 µM (inactive) | 1.07 µM (active) | 11 µM (inactive) | 9.64 µM (inactive) | 13.4 µM (inactive) | 16.1 µM (inactive) | 14.8 µM (inactive) | 3.52 µM (inactive) | 16 µM (inactive) | 2.39 µM (inactive)
11 | NC(=O)/C=C/c1c[nH]c2nccnc12 | 3.34 µM (inactive) | 3.08 µM (inactive) | 3.44 µM (inactive) | 3.15 µM (inactive) | 2.94 µM (inactive) | 3.52 µM (inactive) | 0.625 µM (active) | 3.27 µM (inactive) | 0.641 µM (active) | 0.726 µM (active) | 0.678 µM (active) | 7.13 µM (inactive) | 2.34 µM (inactive) | 0.15 µM (active) | 2.99 µM (inactive) | 0.628 µM (active) | 0.973 µM (active) | 3.5 µM (inactive) | 4.85 µM (inactive) | 0.735 µM (active)
12 | Cc1ccccc1OC(C)C(=O)NN1C(=O)CSC1c1ccc(Cl)cc1 (stereo not given) | 18.2 µM (inactive) | 56.6 µM (inactive) | 38.2 µM (inactive) | 37.9 µM (inactive) | 21 µM (inactive) | 31 µM (inactive) | 24.4 µM (inactive) | 32.1 µM (inactive) | 22.1 µM (inactive) | 25.7 µM (inactive) | 56.1 µM (inactive) | 4.16 µM (inactive) | 31 µM (inactive) | 54.6 µM (inactive) | 35.7 µM (inactive) | 73.3 µM (inactive) | 59.2 µM (inactive) | 51.1 µM (inactive) | 30 µM (inactive) | > 100 µM (inactive)
13 | C[C@@H](C(=O)O)N1C(c2ccco2)=C(/C(C=O)=C\c2ccco2)C(=O)/C1=C\c1ccco1 | > 100 µM (inactive) | > 100 µM (inactive) | > 100 µM (inactive) | > 100 µM (inactive) | > 100 µM (inactive) | > 100 µM (inactive) | > 100 µM (inactive) | > 100 µM (inactive) | > 100 µM (inactive) | > 100 µM (inactive) | > 100 µM (inactive) | > 100 µM (inactive) | > 100 µM (inactive) | > 100 µM (inactive) | > 100 µM (inactive) | > 100 µM (inactive) | > 100 µM (inactive) | > 100 µM (inactive) | > 100 µM (inactive) | > 100 µM (inactive)
14 | COc1cc(C2c3cc4c(cc3[C@@H](Nc3ccc(F)cc3)C3COC(=O)[C@H]23)OCO4)cc(OC)c1O (stereo not given in full) | 1.47 µM (inactive) | 0.514 µM (active) | 0.368 µM (active) | 3.76 µM (inactive) | 0.635 µM (active) | 2.91 µM (inactive) | 0.753 µM (active) | 0.408 µM (active) | 0.0535 µM (active) | 2.48 µM (inactive) | 1.3 µM (inactive) | 2.88 µM (inactive) | 5.04 µM (inactive) | 5.3 µM (inactive) | 1.65 µM (inactive) | 7.69 µM (inactive) | 1.38 µM (inactive) | 0.605 µM (active) | 1.09 µM (active) | 1.65 µM (inactive)
